From the NIST ThermoML archive (doi:10.1016/j.jct.2006.10.008)
± gives the expanded uncertainty stated by the source.

What was measured:
[1] = xn = mol fraction of the nth substance listed; details: 298.15 K, 101 kPa, Liquid
[2] = excess molar enthalpy (molar enthalpy of mixing); xn = mol fraction of the nth substance listed; details: 298.15 K, 101 kPa, Liquid, Calvet calorimetry

ClCCCCl [1,3-dichloropropane] + CCOC=O
Details	excess molar enthalpy [kcal/mol]	mass density [kg/m3]
[1], x2 = 0.0758	–	1161.82 ± 0.64
[1], x2 = 0.1392	–	1147.48 ± 0.62
[1], x2 = 0.2059	–	1132.04 ± 0.58
[1], x2 = 0.2686	–	1117.5 ± 0.56
[1], x2 = 0.336	–	1101.45 ± 0.52
[1], x2 = 0.3983	–	1086.31 ± 0.49
[1], x2 = 0.4584	–	1071.44 ± 0.46
[1], x2 = 0.5183	–	1056.42 ± 0.43
[1], x2 = 0.5752	–	1041.98 ± 0.41
[1], x2 = 0.6319	–	1027.35 ± 0.38
[1], x2 = 0.6884	–	1012.54 ± 0.35
[1], x2 = 0.7433	–	997.87 ± 0.33
[1], x2 = 0.7967	–	983.56 ± 0.34
[1], x2 = 0.849	–	969.23 ± 0.36
[1], x2 = 0.9005	–	954.87 ± 0.38
[1], x2 = 0.949	–	941.1 ± 0.39
[2], x2 = 0.1171	0.00817 ± 0.000263	–
[2], x2 = 0.2311	0.0165 ± 0.000311	–
[2], x2 = 0.3403	0.0202 ± 0.000335	–
[2], x2 = 0.435	0.0196 ± 0.000335	–
[2], x2 = 0.5147	0.0165 ± 0.000311	–
[2], x2 = 0.5813	0.0124 ± 0.000287	–
[2], x2 = 0.6354	0.00894 ± 0.000263	–
[2], x2 = 0.682	0.00588 ± 0.000239	–
[2], x2 = 0.7186	0.00296 ± 0.000215	–
[2], x2 = 0.7381	-0.0037 ± 0.000215	–
[2], x2 = 0.7773	-0.00679 ± 0.000239	–
[2], x2 = 0.8208	-0.0092 ± 0.000263	–
[2], x2 = 0.8622	-0.0105 ± 0.000263	–
[2], x2 = 0.9018	-0.00858 ± 0.000263	–
[2], x2 = 0.9383	-0.00452 ± 0.000215	–
[2], x2 = 0.9723	-0.000287 ± 0.000191	–

ClCCCCCCl [1,5-dichloropentane] + CCCOC=O
Details	excess molar enthalpy [kcal/mol]	mass density [kg/m3]
[1], x2 = 0.0753	–	1084.21 ± 0.49
[1], x2 = 0.1495	–	1073.17 ± 0.47
[1], x2 = 0.2212	–	1062.01 ± 0.44
[1], x2 = 0.2884	–	1051.29 ± 0.42
[1], x2 = 0.3607	–	1039.4 ± 0.4
[1], x2 = 0.4174	–	1029.7 ± 0.38
[1], x2 = 0.4802	–	1018.63 ± 0.36
[1], x2 = 0.5386	–	1008.06 ± 0.34
[1], x2 = 0.6024	–	996.11 ± 0.33
[1], x2 = 0.6568	–	985.57 ± 0.34
[1], x2 = 0.7118	–	974.66 ± 0.35
[1], x2 = 0.8133	–	953.48 ± 0.38
[1], x2 = 0.8586	–	943.64 ± 0.39
[1], x2 = 0.9056	–	933.22 ± 0.4
[1], x2 = 0.9555	–	921.68 ± 0.42
[2], x2 = 0.0792	0.0136 ± 0.000287	–
[2], x2 = 0.1664	0.0219 ± 0.000359	–
[2], x2 = 0.2538	0.0276 ± 0.000406	–
[2], x2 = 0.3307	0.0289 ± 0.000406	–
[2], x2 = 0.4063	0.0282 ± 0.000406	–
[2], x2 = 0.4789	0.0251 ± 0.000382	–
[2], x2 = 0.5175	0.022 ± 0.000359	–
[2], x2 = 0.5645	0.0176 ± 0.000335	–
[2], x2 = 0.6145	0.0142 ± 0.000287	–
[2], x2 = 0.6665	0.00935 ± 0.000263	–
[2], x2 = 0.7229	0.00478 ± 0.000215	–
[2], x2 = 0.7817	0.0016 ± 0.000191	–
[2], x2 = 0.8389	-0.00249 ± 0.000215	–
[2], x2 = 0.8948	-0.00507 ± 0.000215	–
[2], x2 = 0.9503	-0.00287 ± 0.000215	–

COC=O [methyl methanoate] + ClCCCl
Details	excess molar enthalpy [kcal/mol]	mass density [kg/m3]
[1], x1 = 0.0778	–	1227.3 ± 0.78
[1], x1 = 0.1458	–	1211.22 ± 0.75
[1], x1 = 0.2144	–	1194.43 ± 0.71
[1], x1 = 0.2795	–	1177.71 ± 0.68
[1], x1 = 0.3474	–	1160.37 ± 0.64
[1], x1 = 0.4099	–	1143.76 ± 0.61
[1], x1 = 0.4725	–	1126.96 ± 0.57
[1], x1 = 0.5316	–	1110.73 ± 0.54
[1], x1 = 0.5888	–	1094.68 ± 0.51
[1], x1 = 0.6463	–	1077.99 ± 0.48
[1], x1 = 0.6998	–	1062.25 ± 0.45
[1], x1 = 0.753	–	1046.16 ± 0.41
[1], x1 = 0.8045	–	1030.32 ± 0.38
[1], x1 = 0.8548	–	1014.49 ± 0.35
[1], x1 = 0.9043	–	998.6 ± 0.33
[1], x1 = 0.9525	–	982.78 ± 0.34
[2], x1 = 0.0754	0.00636 ± 0.000239	–
[2], x1 = 0.1373	0.011 ± 0.000263	–
[2], x1 = 0.1901	0.0152 ± 0.000311	–
[2], x1 = 0.2508	0.019 ± 0.000335	–
[2], x1 = 0.3109	0.0219 ± 0.000359	–
[2], x1 = 0.3728	0.0238 ± 0.000382	–
[2], x1 = 0.4325	0.0247 ± 0.000382	–
[2], x1 = 0.4874	0.0246 ± 0.000382	–
[2], x1 = 0.5372	0.024 ± 0.000382	–
[2], x1 = 0.5928	0.0226 ± 0.000359	–
[2], x1 = 0.6569	0.0206 ± 0.000335	–
[2], x1 = 0.7322	0.0175 ± 0.000311	–
[2], x1 = 0.8084	0.0138 ± 0.000287	–
[2], x1 = 0.8844	0.00951 ± 0.000263	–
[2], x1 = 0.9514	0.0049 ± 0.000215	–
